Measured values published in US8148577B2, “Polyamines useful as anti-parasitic and anti-cancer therapeutics and as lysine-specific demethylase inhibitors” (The Johns Hopkins University, priority 2005, dated 2012).

Experiments:
[1] = tested on: H157 (non-small cell lung carcinoma) cells; experiment: Polyamine levels in H157 cells following treatment; assay type: cell-based, human
Protocol: (§1) Putrescine, spermidine, and spermine polyamine levels in H157 and H82 cells following exposure to select compounds were performed. Polyamine levels were determined using the precolumn dansylation labeling, reverse-phase high-pressure liquid chromatography method as described by Kabra et al., J. Chromotography, 380:19 (1986). The results are show in Tables 6 and 11 for H157 and H82 cells respectively. The compound identifier, treatment concentration, observed polyamine level, and exposure time are listed in columns 1, 2, 3, and 4 respectively. Polyamine levels are reported as increased (inc), decrease (dec), or no change (N/C). In some case the specific levels of putrescine, spermidine, and/or spermine are listed.

H82 cells = experiment: Polyamine levels in H82 cells following treatment; assay type: cell-based, human; conditions: 24 hr
Protocol: as §1

[2] = 10 uM, 24 hr, inc = increased, dec = decrease, N/C = no change

Row | SMILES | Polyamine Level [1, 2] | Polyamine Level (H82 cells; 10 uM) | Polyamine Level (H82 cells; 0-10 uM) | Polyamine Level ([1]; 1 uM, 24 hr) | Polyamine Level ([1]; 10 uM, 96 hr)
1 | CCCCNCCCNCCCNCCCNCCCC [ZQW-14c] | slowly dec | slowly dec | – | – | –
2 | CCCCNCCCNCCCNCCCN [ZQW-16c] | slowly inc | dec ~50% | slight inc | – | –
3 | CCCCNCCCNCCCNCCCNCC [ZQW-19] | dec ~50% | dec ~50% | slow dec | N/C | –
4 | CCNCCCN(CCCN)CCCCCCCNCCCN [ZQW-27-9] | N/C | dec | – | – | –
5 | CCNCCCN(CCCN)CCCCCCCNCCCNCC1CCCCCC1 [ZQW-27-11C] | – | dec ~50% | – | – | N/C
